Tests used:
Assay type in all cases: cell-based, human
[1] = system: BRAFV600E melanoma cell lines; assay: Hormonal co-treatment in vitro: proliferative response to DT; conditions: cell culture, co-treatment with dabrafenib 1 μM and trametinib 100 nM
[2] = system: BRAFV600E melanoma cell lines; assay: Hormonal co-treatment in vitro: cell cycle response to DT; conditions: cell culture, co-treatment with dabrafenib 1 μM and trametinib 100 nM
Method: (§1) In parallel, hormonal perturbations were evaluated in vitro using a panel of BRAFV600E melanoma cell lines derived from melanoma patients of the institution.
(§2) Melanoma cell lines derived from tumors of patients treated at UT MD Anderson Cancer Center under the TIL program were obtained from Dr. Chantale Bernatchez and Dr. Scott Woodman. For these studies, n=5 male (2373, 2400, 2650, 2800 and 624-mel) and n=5 female (2153, 2333, 2379, 2508, 2510) lines were selected based on carriage of BRAF^V600E/K mutations and avoidance of prior exposure in vivo to MAPK blockade therapies. Cells were maintained in phenol red-free RPMI-1640 supplemented with 10% heat-inactivated FBS, 1% GlutaMAX and 1% Pencillin/Streptomycin (all Gibco). LNCaP, MCF7 and PC3 cell lines were obtained from institutional stocks and maintained in RPMI-1640 supplemented as above (LNCaP, MCF7) or DMEM/F12 supplemented as above (PC3). All cell lines were confirmed mycoplasma negative using the Lonza MycoALERT kit prior to use, and authenticated by STR profiling via the MD Anderson Characterized Cell Line Core. […]

[3] = system: BRAFV600E melanoma cell lines; assay: Hormonal co-treatment in vitro: apoptosis response to DT; conditions: cell culture, co-treatment with dabrafenib 1 μM and trametinib 100 nM, 72 hours
Method: as §1
as §2, with “(PC3).” for “(PC3). All cell lines were confirmed mycoplasma negative using the Lonza MycoALERT kit prior to use, and authenticated by STR profiling via the MD Anderson Characterized Cell Line Core.”
Cells were plated into 6-well plates at 250,000 cells/well in full growth media and allowed to adhere overnight prior to drug treatment as shown in results in reduced-serum medium (5% FBS, phenol red-free RPMI-1640). […] Data acquisition by flow cytometry was performed within 2 hours of cell harvest and analyzed in FlowJo after gating on cell size, singlets, and applying Curly Quadrant gates to PI vs YO-PRO-1 fluorescence.

C[C@]12CC[C@H]3[C@@H](CCC4=CC(=O)CC[C@@]43C)[C@@H]1CC[C@@H]2O [testosterone]
no significant effects: effect on proliferative response to DT treatment [1] | effect on cell cycle response to DT treatment [2] | effect on apoptosis response to DT treatment [3]

CNC(=O)c1ccc(N2C(=S)N(c3ccc(C#N)c(C(F)(F)F)c3)C(=O)C2(C)C)cc1F [enzalutamide]
no significant effects: effect on proliferative response to DT treatment [1] | effect on cell cycle response to DT treatment [2] | effect on apoptosis response to DT treatment [3]

— patent US20200164034A1, “METHODS FOR IMPROVING SEX-DIMORPHIC RESPONSES TO TARGETED THERAPY IN MELANOMA” (Board of Regents, The University of Texas System, priority 2018, published 2020)
